Measurements: ChEMBL document CHEMBL1130169, “Validation of EGSITE2, a mixed integer program for deducing objective site models for experimental binding data” (J Med Chem, 1997)

Molecular target: T1, Sex hormone-binding globulin (Homo sapiens) (UniProt P04278)
T1 sequence (whole entry): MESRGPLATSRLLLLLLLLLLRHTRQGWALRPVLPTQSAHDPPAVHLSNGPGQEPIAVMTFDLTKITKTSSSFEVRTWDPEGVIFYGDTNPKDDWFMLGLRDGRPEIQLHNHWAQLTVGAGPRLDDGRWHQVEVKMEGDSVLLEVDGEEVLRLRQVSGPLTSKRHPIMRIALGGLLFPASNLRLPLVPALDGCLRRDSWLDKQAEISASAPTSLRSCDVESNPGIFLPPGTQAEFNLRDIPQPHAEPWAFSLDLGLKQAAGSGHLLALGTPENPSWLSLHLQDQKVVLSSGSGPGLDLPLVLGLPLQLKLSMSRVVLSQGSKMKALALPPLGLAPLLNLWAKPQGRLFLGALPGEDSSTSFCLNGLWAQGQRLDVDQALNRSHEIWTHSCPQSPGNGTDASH
Description: Binding affinity towards human testosterone binding globulin.

SMILES: CC(=O)[C@H]1CC[C@H]2[C@@H]3CC=C4C[C@@H](O)CC[C@]4(C)[C@H]3CC[C@]12C
- -Log Kdiss: 6.15

SMILES: C[C@]12CC[C@@H]3c4ccc(O)cc4CC[C@H]3[C@@H]1C[C@@H](O)[C@@H]2O
- -Log Kdiss: 5.63

SMILES: C[C@]12CCC(=O)C=C1CC[C@@H]1[C@@H]2C(=O)C[C@@]2(C)[C@H]1CC[C@]2(O)C(=O)CO
- -Log Kdiss: 5.43

SMILES: C[C@]12CCC(=O)C=C1CC[C@@H]1[C@@H]2[C@@H](O)C[C@@]2(C)[C@H]1CC[C@]2(O)C(=O)CO
- -Log Kdiss: 5.2

SMILES: C[C@]12CC[C@@H](O)C[C@@H]1CC[C@@H]1[C@@H]2CC[C@]2(C)C(=O)CC[C@@H]12
- -Log Kdiss: 6.15

SMILES: C[C@]12CCC3C(CC[C@@H]4CC(O)=CC[C@]34C)C1CCC2=O (some centres undefined)
- -Log Kdiss: 5.15

SMILES: C[C@]12CC[C@H](O)CC1=CCC1C2CC[C@]2(C)C(=O)CCC12 (some centres undefined)
- -Log Kdiss: 6.82

SMILES: C[C@]12CCC(=O)C=C1CC[C@@H]1[C@@H]2CC[C@@]2(C)[C@H]1CC[C@]2(O)C(=O)CO
- -Log Kdiss: 6.2

SMILES: C[C@]12CCC(=O)C=C1CC[C@@H]1[C@@H]2CC[C@]2(C)C(=O)CC[C@@H]12
- -Log Kdiss: 6.46

SMILES: CC(=O)[C@H]1CC[C@H]2[C@@H]3CCC4=CC(=O)CC[C@]4(C)[C@H]3CC[C@]12C
- -Log Kdiss: 5.94

SMILES: C[C@]12CC[C@H]3[C@@H](CCC4=CC(=O)CC[C@@]43C)[C@@H]1CC[C@@H]2O
- -Log Kdiss: 8.2

SMILES: CC(=O)[C@@]1(O)CC[C@H]2[C@@H]3CC=C4C[C@@H](O)CC[C@]4(C)[C@H]3CC[C@@]21C
- -Log Kdiss: 5.36

SMILES: C[C@]12CCC(=O)C[C@@H]1CC[C@@H]1[C@@H]2CC[C@]2(C)[C@@H](O)CC[C@@H]12
- -Log Kdiss: 8.74

SMILES: C[C@]12CC[C@H](O)C[C@@H]1CC[C@@H]1[C@@H]2CC[C@]2(C)[C@@H](O)CC[C@@H]12
- -Log Kdiss: 8.11

SMILES: CC(=O)[C@@]1(O)CC[C@H]2[C@@H]3CCC4=CC(=O)CC[C@]4(C)[C@H]3CC[C@@]21C
- -Log Kdiss: 6

SMILES: C[C@]12CCC(=O)C=C1CCC1C3CC[C@H](C(=O)CO)[C@@]34C[C@H](OC4O)C12 (some centres undefined)
- -Log Kdiss: 4.32

SMILES: C[C@]12CC[C@H]3[C@@H](CCC4=CC(=O)CC[C@@]43C)[C@@H]1CC[C@@H]2C(=O)CO
- -Log Kdiss: 6.38

SMILES: C[C@]12CC[C@@H]3c4ccc(O)cc4CCC3[C@@H]1CCC2=O (single isomer, unassigned)
- -Log Kdiss: 7.18

SMILES: C[C@]12C[C@H](O)[C@H]3[C@@H](CCC4=CC(=O)CC[C@@]43C)[C@@H]1CC[C@@H]2C(=O)CO
- -Log Kdiss: 5.34
